Test [1] addresses DNA (cytosine-5)-methyltransferase 1 (Homo sapiens, UniProt P26358). As to the kind of experiment: Inhibition of DNMT1 (unknown origin) at 5 uM preincubated for 15 mins followed by substrate and [3H-SAM] addition and measured after 60 mins by microbeta analysis relative to control. Conditions: time 75.0 min.
The target of test [2] is DNA (cytosine-5)-methyltransferase 3A (Homo sapiens, UniProt Q9Y6K1). The test is described as follows: Inhibition of DNMT3A (unknown origin) at 5 uM preincubated for 15 mins followed by substrate and [3H-SAM] addition and measured after 60 mins by microbeta analysis relative to control. Conditions: time 75.0 min.
DNA (cytosine-5)-methyltransferase 3A, sequence (Q9Y6K1 whole entry, looked up): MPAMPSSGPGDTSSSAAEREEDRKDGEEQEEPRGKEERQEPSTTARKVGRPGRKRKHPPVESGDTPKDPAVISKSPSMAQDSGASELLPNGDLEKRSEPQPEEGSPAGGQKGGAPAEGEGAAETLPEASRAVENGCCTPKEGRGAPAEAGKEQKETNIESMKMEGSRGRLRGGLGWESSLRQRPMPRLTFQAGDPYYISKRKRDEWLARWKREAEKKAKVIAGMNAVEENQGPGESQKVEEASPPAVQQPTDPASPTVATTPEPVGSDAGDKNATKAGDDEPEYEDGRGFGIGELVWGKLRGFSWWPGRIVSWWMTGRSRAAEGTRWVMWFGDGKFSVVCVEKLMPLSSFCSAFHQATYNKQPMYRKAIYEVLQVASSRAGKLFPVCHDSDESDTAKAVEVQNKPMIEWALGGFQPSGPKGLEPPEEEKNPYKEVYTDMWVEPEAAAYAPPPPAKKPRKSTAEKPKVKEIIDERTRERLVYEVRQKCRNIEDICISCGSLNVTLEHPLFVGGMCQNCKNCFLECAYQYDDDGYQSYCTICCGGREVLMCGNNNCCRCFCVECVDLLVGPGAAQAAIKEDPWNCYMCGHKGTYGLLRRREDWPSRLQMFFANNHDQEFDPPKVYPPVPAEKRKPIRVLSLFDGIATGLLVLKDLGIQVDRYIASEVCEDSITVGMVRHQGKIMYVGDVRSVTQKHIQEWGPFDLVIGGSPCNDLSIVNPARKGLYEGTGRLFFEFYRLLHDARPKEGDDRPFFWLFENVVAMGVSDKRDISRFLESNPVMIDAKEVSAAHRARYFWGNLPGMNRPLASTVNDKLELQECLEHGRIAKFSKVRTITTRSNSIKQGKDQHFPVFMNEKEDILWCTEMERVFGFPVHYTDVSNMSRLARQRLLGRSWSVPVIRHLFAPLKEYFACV
Test [3] has as its target DNA (cytosine-5)-methyltransferase 3B (Homo sapiens, UniProt Q9UBC3). As to the kind of experiment: Inhibition of DNMT3B (unknown origin) at 5 uM preincubated for 15 mins followed by substrate and [3H-SAM] addition and measured after 60 mins by microbeta analysis relative to control. Conditions: time 75.0 min.
In test [4] the target is T1, Histone-lysine N-methyltransferase EHMT2 (Homo sapiens) (UniProt Q96KQ7).
T1 sequence (whole entry): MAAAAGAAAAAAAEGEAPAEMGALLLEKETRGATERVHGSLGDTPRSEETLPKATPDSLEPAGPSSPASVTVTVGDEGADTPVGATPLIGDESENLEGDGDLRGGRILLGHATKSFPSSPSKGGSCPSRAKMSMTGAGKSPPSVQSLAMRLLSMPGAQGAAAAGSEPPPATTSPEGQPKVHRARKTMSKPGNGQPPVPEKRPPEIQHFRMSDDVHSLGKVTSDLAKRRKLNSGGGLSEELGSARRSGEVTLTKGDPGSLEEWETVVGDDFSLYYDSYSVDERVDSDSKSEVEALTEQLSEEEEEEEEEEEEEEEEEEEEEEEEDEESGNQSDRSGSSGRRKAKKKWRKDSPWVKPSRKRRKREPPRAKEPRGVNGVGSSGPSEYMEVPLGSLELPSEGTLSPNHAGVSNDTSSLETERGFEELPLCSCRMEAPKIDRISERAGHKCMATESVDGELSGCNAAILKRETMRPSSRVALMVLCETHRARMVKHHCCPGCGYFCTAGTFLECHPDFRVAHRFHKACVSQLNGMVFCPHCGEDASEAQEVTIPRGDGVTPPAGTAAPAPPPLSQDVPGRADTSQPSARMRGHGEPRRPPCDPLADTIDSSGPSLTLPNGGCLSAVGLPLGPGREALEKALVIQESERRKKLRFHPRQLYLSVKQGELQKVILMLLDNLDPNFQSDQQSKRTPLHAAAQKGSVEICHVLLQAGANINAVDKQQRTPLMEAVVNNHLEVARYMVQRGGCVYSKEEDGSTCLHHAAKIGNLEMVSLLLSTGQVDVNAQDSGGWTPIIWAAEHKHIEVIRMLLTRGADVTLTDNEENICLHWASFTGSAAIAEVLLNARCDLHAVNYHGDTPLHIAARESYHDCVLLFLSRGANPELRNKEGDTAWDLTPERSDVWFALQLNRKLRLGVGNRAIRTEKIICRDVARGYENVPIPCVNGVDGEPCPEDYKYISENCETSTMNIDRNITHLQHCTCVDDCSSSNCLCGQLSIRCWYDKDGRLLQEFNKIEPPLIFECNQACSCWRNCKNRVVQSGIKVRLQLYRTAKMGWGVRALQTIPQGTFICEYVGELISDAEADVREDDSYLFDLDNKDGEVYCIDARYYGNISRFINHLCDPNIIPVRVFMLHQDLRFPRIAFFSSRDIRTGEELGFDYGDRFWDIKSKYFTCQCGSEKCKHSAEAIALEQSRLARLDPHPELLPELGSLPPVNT
As to the kind of experiment: Inhibition of G9a (unknown origin) at 5 uM preincubated for 15 mins followed by substrate and [3H-SAM] addition and measured after 60 mins by microbeta analysis relative to control. Particulars: time 75.0 min.

A further test has as its system MV4-11. As to the kind of experiment: Antiproliferative activity against human MV4-11 cells assessed as inhibition of cell viability measured after 72 hrs by MTT assay. It counts as functional, cell-based. Conditions: MV4-11, 72 h. On the technique in general: Formazan colour is commonly taken as a measure of viable cells.
The next test has as its system U-937. The test is described as follows: Antiproliferative activity against human U-937 cells assessed as inhibition of cell viability measured after 72 hrs by MTT assay. The test is classed as functional, cell-based. Conditions: U-937, 72 h.

DNA (cytosine-5)-methyltransferase 1, sequence (P26358 whole entry): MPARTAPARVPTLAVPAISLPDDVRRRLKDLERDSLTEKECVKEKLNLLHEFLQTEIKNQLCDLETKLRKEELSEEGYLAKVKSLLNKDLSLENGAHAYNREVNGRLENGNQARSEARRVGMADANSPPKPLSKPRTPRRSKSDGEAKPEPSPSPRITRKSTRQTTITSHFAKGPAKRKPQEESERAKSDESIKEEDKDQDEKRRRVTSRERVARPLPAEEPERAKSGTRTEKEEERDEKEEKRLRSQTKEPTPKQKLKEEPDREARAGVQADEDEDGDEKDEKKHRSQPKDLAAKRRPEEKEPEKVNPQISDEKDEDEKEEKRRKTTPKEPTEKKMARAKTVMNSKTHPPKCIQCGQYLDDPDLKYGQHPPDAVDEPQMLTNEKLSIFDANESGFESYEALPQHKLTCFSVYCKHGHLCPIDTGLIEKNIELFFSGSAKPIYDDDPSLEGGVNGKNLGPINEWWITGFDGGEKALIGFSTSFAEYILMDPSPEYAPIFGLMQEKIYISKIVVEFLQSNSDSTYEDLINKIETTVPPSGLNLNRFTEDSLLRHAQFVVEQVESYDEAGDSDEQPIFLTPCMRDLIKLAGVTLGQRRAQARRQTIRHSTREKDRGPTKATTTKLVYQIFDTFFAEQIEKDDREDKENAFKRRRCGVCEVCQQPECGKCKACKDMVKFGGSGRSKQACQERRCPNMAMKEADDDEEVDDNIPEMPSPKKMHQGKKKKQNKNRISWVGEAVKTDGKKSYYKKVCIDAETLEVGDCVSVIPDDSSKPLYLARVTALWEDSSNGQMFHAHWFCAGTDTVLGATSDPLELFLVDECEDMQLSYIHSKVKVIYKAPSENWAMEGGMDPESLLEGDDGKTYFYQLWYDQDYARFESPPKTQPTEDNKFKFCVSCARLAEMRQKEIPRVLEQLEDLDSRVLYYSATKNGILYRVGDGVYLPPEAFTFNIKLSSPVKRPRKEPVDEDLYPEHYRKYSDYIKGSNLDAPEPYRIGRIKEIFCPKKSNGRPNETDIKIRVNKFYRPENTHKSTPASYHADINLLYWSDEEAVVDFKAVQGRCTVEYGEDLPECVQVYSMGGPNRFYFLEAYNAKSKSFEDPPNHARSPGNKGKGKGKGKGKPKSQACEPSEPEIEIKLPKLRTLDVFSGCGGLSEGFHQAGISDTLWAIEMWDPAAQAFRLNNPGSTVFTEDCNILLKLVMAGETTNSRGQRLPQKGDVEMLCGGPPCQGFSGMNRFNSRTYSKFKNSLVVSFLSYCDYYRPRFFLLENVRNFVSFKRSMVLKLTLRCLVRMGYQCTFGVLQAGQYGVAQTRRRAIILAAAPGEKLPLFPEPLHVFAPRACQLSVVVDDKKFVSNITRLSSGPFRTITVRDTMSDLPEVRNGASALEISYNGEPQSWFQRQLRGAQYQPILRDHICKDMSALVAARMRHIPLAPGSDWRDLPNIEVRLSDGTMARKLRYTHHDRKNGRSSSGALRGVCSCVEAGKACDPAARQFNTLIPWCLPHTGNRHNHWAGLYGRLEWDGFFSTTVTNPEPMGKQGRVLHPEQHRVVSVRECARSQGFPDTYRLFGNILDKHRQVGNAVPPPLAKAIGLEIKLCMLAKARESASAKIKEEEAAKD

What is called inhibition is the change of the read-out against control, counted positive when it falls. The IC50 is the concentration that inhibits the measured activity by half. As to `CN1CCC(Nc2nc(-c3ccc(F)nc3)nc3c2ccn3CCCN2CCOCC2)CC1`, the inhibition in test [1] worked out at 17%; in test [2], 16%; in test [3], 0.2%; in test [4], 11%. The IC50 with MV4-11 was determined as 10.6 µM; in the test on U-937 it was 6.84 µM.
As to `CC(C)(C)OC(=O)N1CCC(CNc2cc(-c3ccc(F)cc3)cc3c2cnn3CCCN2CCCC2)CC1`, the inhibition was found to be 32% in test [1], 6.8% in test [2] and 9.1% in test [3]. The 50% inhibitory concentration (IC50) with MV4-11 came out at 1.21 µM; in the test on U-937 it was 1.07 µM.
Turning to `CN1CCC(Nc2nc(N3CCCCC3)nc3c2ccn3CCCN2CCCC2)CC1`, the inhibition in test [1] is 20%; in test [2], 6.9%; in test [3] it was -9.7%; in test [4], 1.9%. Further, the IC50 with MV4-11 was 9.62 µM; with U-937 it was 17.7 µM.
With `Cc1ccc(-c2cc(NC3CCN(C(C)C)CC3)c3cnn(CCCN4CCCC4)c3c2)o1`, the inhibition was 56% in test [1], 13% in test [2], -9.4% in test [3] and 12% in test [4]. Moreover, the IC50 in the test on MV4-11 was 11.9 µM; in the test with U-937, 12.2 µM.
In the case of `CN1CCC(Nc2nc(N3CCN(C)CC3)nc3c2ccn3CCCN2CCOCC2)CC1`, the inhibition came out at 25% in test [1], 9.5% in test [2], 16% in test [3] and 12% in test [4]. Moreover, the values for the half-inhibitory concentration (IC50) in the test with MV4-11 and in the test on U-937 were 23.8 µM and 58.6 µM, respectively.
Consider `CC(C)N1CCC(Nc2nc(N3CCN(C)CC3)nc3c2ccn3CCCN2CCCC2)CC1`, for which the inhibition amounted to 20% in test [1], 6.6% in test [2], 4.3% in test [3] and 3.6% in test [4]. Further, the results for the 50% inhibitory concentration (IC50) in the test on MV4-11 and in the test on U-937 were 2.87 µM and 15.6 µM, respectively.
Take `Cc1ccc(-c2cc(NCC3CCN(Cc4ccccc4)CC3)c3cnn(CCCN4CCCC4)c3c2)o1`: the inhibition in test [1] was found to be 61%; in test [2], 25%; in test [4], 14%. Moreover, the IC50 amounted to 1 µM in the test with MV4-11 and 1.59 µM in the test with U-937.
As for `CC(C)N1CCC(Nc2nc(N3CCOCC3)nc3c2ccn3CCCN2CCCC2)CC1`, the inhibition in test [1] is 6.7%; in test [2], 2.6%; in test [3], -9.7%; in test [4] it was -1.4%. The IC50 with MV4-11 was 40.9 µM; in the test on U-937, > 100 µM.
For `CN1CCC(Nc2nc(-c3ccc(C(F)(F)F)cc3)nc3c2ccn3CCCN2CCCC2)CC1`, the inhibition in test [1] was determined as 42%; in test [2] it was 9.7%; in test [3] it was 1.1%. For the same compound, the IC50 in the test on MV4-11 is 1.16 µM; in the test with U-937, 0.98 µM.
In the same order, the values of `COc1ccc(-c2cc(NCC3CCN(Cc4ccccc4)CC3)c3cnn(CCCN4CCCC4)c3c2)cc1` are 48%, 24%, 1.2%, 1.44 µM and 1.02 µM.
Regarding `Cc1ccc(-c2cc(NCC3CCNCC3)c3cnn(CCCN4CCCC4)c3c2)o1`, the results for the inhibition in test [1], in test [2] and in test [4] were 41%, 20% and 22%, respectively. Moreover, the IC50 with MV4-11 came to 2.33 µM; with U-937, 8.91 µM.
Consider `CN1CCN(c2cc(NCC3CCN(C(=O)C4CCCC4)CC3)c3cnn(CCCN4CCOCC4)c3c2)CC1`, for which, in the test on MV4-11, the IC50 is 8.67 µM.
As to `CN1CCC(Nc2nc(N3CCCC3)nc3c2ccn3CCCN2CCCC2)CC1`, the results for the inhibition in test [1], in test [2] and in test [4] were 25%, 4.2% and 1.3%, respectively. In addition, the values for the half-inhibitory concentration (IC50) in the test with MV4-11 and in the test on U-937 were 11 µM and 46.3 µM, respectively.
In the case of `CC(C)N1CCC(Nc2nc(N3CCN(C)CC3)nc3c2ncn3CCCN2CCCC2)CC1`, the inhibition in test [1] is 17%; in test [2], -6.9%. The figures for the IC50 in the test with MV4-11 and with U-937 were 8.25 µM and 14.2 µM, respectively.
